# Key:
# [1] = test system: CD44high/CD24low population in mammospheres from SUM-159PT cells; assay: CSCs phenotype assay (CD44/CD24 flow cytometry); format: cell-based; conditions: 4 µM
# Description: Cells were treated with B591 for 24 h, then the cell suspension was incubated with 20 μl of CD44-APC (#559942, BD Pharmingen, Franklin Lakes, NJ, USA) and 20 μl of CD24-PE (#555428, BD Pharmingen) antibodies for 30 min in dark at 4 ℃. Phenotype was detected by BD FACSCalibur, and data was analyzed with Flowjo. ALDH activity was analyzed with ALDEFLUOR Kit (STEMCELL Technologies, Vancouver, BC, Canada) according to the manufacture’s protocol.
# [2] = test system: MDA-MB-231 orthotopic xenografts; assay: MDA-MB-231 orthotopic xenograft; format: in vivo, NOD/SCID mice; conditions: for Decrease of tumor burden (determined by volume): versus vehicle
# Description: Then we evaluated the inhibitory effect of B591 on CSCs by in vivo xenograft assay (Fig. 5a). B591 (4 or 16 mg/kg) was given to the NOD/SCID mice bearing orthotopic xenografts of human breast cancer MDA-MB-231 cells for 2 weeks. […] The inhibition of PI3K/mTOR pathway by B591 in tumors was further confirmed by western blot analysis.
# In MDA-MB-231 xenografts experiment, 1 × 10^6 cells were incubated into the mammary fat pad of mice orthotopically. When the volume of tumor reached above 50 mm^3, the mice were randomly divided into three groups for introperitoneal (i.p.) injection with vehicle, 4 mg/kg and 16 mg/kg B591. The tumor volume and the body weight of mice were measured during the 2-weeks treatment. In the end of treatment, the mice were killed, and the tumor tissues were dissected and dissociated into single cell suspension with Dispase II (Roche, Basel, Switzerland) according with the manufacture’s protocol. Then these single cells were used for CSCs phenotype assay, ALDH activity assay, mammosphere formation assay and limiting dilution assay in vivo as described above.
# PI3Kγ (p110γ) = target: T1, PI3Kγ (p110γ) (Homo sapiens, UniProt P48736); assay: In vitro PI3K kinase assay (PI3-Kinase Activity ELISA); format: biochemical; conditions: incubated 30 min at room temperature
# T1 construct: purchased Promega
# T1 sequence (P48736 whole entry): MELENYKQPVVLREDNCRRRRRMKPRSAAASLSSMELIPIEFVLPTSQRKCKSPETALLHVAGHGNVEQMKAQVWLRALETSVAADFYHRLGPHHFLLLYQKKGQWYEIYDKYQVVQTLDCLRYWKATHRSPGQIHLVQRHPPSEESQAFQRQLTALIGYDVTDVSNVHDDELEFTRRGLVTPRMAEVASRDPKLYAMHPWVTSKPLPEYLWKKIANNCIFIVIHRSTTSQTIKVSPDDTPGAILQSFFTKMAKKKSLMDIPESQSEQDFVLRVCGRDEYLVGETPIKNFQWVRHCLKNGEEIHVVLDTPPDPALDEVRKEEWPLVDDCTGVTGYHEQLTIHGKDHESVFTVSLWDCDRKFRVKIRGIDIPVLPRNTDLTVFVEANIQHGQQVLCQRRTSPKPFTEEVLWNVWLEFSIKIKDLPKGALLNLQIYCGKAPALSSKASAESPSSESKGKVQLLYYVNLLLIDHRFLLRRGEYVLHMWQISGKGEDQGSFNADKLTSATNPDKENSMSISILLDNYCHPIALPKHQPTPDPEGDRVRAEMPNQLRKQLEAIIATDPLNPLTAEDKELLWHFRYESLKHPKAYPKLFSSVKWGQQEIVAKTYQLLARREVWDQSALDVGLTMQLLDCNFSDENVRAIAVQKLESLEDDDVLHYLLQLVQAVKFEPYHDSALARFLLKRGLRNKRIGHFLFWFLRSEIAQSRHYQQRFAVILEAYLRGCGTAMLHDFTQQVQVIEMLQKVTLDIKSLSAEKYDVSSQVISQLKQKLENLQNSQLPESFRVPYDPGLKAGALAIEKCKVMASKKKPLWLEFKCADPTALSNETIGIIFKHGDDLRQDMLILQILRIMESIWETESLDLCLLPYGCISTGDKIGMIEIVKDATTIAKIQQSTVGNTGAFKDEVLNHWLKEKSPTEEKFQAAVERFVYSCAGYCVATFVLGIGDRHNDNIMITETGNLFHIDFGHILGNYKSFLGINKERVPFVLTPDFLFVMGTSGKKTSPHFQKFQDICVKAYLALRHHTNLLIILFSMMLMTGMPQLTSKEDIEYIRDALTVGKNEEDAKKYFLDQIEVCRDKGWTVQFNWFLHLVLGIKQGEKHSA
# Description: Purified PI3K Class I Lipid Kinase, including p110α/p85α, p110β/p85α, p110γ, and p110δ/p85α (Promega, Madison, WI, USA), was respectively incubated with B591 for 30 min at room temperature. The activity of PI3K was evaluated using a PI3-Kinase Activity ELISA kit (K-1000s, Echelon, Salt Lake City, UT, USA) according to the manufacture’s instructions. The assay is a competitive ELISA in which the signal is inversely proportional to the amount of PI(3,4,5)P3 produced. After the PI3-Kinase reactions are complete, reaction products are first mixed and incubated with a PI(3,4,5)P3 detector protein, then added to the PI(3,4,5)P3-coated microplate for competitive binding. A peroxidase-linked secondary detector and colorimetric detection is used to detect PI(3,4,5)P3 detector binding to the plate. The colorimetric signal is inversely proportional to the amount of PI(3,4,5)P3 produced by PI3-Kinase. The absorbance was measured at 450 nm with a Multilabel Reader (PerkinElmer, Waltham, MA, USA). ATP competition assays were executed with varying concentrations of ATP, and five concentrations of ATP were 5 μM, 25 μM, 50 μM, 100 μM, and 200 μM respectively. The IC50 values for inhibition of PI3Kβ by B591 were determined at indicated concentrations of ATP. In addition, B591 selectivity was tested against 39 kinases at Life Technologies.
structure (smiles),measurement,setting,value
"Cc1cc2c(cc1C)[n+](Cc1ccccc1Br)cn2Cc1ccc2c(c1)CCO2.[Br-] [B591, 3-(2-bromobenzyl)-1-((2,3-dihydrobenzofuran-5-yl)methyl) -5,6-dimethyl-1H-benzo[d]imidazol-3-ium bromide]",Decrease of CD44high/CD24low population,[1],82%
same,Decrease of tumor burden (determined by volume),"[2]; 4 mg/kg i.p., 2 weeks",40%
same,Inhibition based on final tumor weights,"[2]; 16 mg/kg i.p., 2 weeks",70.7%
same,Decrease of tumor burden (determined by volume),"[2]; 16 mg/kg i.p., 2 weeks",60%
same,Body weight,"[2]; 4 or 16 mg/kg, 2 weeks",no significant body weight loss
same,CD44high/CD24low and ALDHhigh breast CSCs populations in xenograft tumors,[2]; tumors dissociated at end of treatment,significantly reduced
same,IC50,PI3Kγ (p110γ),107 ± 70 nM
